Common to all, as to test: NCI-60 cell line screen, 48 h
The subject of assay [1] is HCT-15.
In assay [2] the test system is IGROV-1.
Assay [3] concerns NCI-H23.
Assay [4] deals with LXFL 529.
The test system of assay [5] is NCI-H522.
Assay [6] deals with SF-268.
The subject of assay [7] is SR.
The subject of assay [8] is SF-295.
In assay [9] the test system is DMS-114.
Assay [10] deals with CCRF-CEM.
The subject of assay [11] is HCC 2998.
Assay [12] has as its system EKVX.
Assay [13] concerns Malme-3M.
In assay [14] the test system is ACHN.
Assay [15] concerns HL-60.
The test system of assay [16] is OVCAR-5.
In assay [17] the test system is UACC-257.

The structures appear in SMILES notation.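 48-hour exposure; five concentrations; linearly interpolated endpoints. The concentration for 50% growth inhibition is given as GI50.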 Activity calls are given as the source filed them. Rule as the data show it: active = GI50 up to about 1.1 µM and inactive = higher.

Take `CC[C@@]12N=C(N(C)C)C[C@]1(O)ON=C2C`: the GI50 was over 100 µM in [1]; > 100 µM (inactive) in [2]; > 100 µM (inactive) in assay [3]; > 100 µM (inactive) in [4]; > 100 µM (inactive) in [5]; > 100 µM (inactive) in assay [6]. Also, the GI50 in assay [7], in [8], in assay [9], in assay [10], in assay [11] and in assay [12] was > 100 µM (inactive) in each case. The GI50 in assay [13], in assay [14] and in assay [15] was > 100 µM (inactive) each time.
Turning to `CC12CCC(CC1)C(C)(C)O2` [EUCALYPTOL], the GI50 in assay [1] was 12.1 µM; in assay [2], 30.4 µM (inactive); in [3] it was 16.9 µM (inactive); in assay [4], > 100 µM (inactive); in assay [5], 10.1 µM (inactive); in assay [6], 42 µM (inactive). For the same molecule, the GI50 is > 100 µM (inactive) in assay [7]; 21.5 µM (inactive) in [8]; 24.4 µM (inactive) in assay [9]; 26.4 µM (inactive) in assay [11]; 38 µM (inactive) in [12]; 64.7 µM (inactive) in assay [16]. Moreover, the GI50 in assay [13] was 54.6 µM (inactive); in assay [17], 16.9 µM (inactive); in assay [14] it was > 100 µM (inactive); in assay [15] it was 17.1 µM (inactive).
For the molecule `CCN/C(=N\Nc1ccc([N+](=O)[O-])cc1)P(=O)(OC(C)C)OC(C)C`, the GI50 in [1] is over 100 µM; in assay [3], > 100 µM (inactive); in assay [4] it was > 100 µM (inactive); in assay [5], > 100 µM (inactive); in assay [6], > 100 µM (inactive); in assay [7], > 100 µM (inactive). The GI50 in assay [9] is > 100 µM (inactive); in assay [10] it was > 100 µM (inactive); in assay [11], > 100 µM (inactive); in [12], > 100 µM (inactive); in [16] it was > 100 µM (inactive); in assay [13], 51.2 µM (inactive). The GI50 in assay [17] is 68.1 µM (inactive); in [14] it was > 100 µM (inactive); in [15] it was > 100 µM (inactive).
For `COc1ccc(CNc2cnc3cc(N)ccc3n2)cc1`, the GI50 in assay [1] was over 100 µM; in assay [2] it was > 100 µM (inactive); in [3], > 100 µM (inactive); in assay [4], > 100 µM (inactive); in [5], > 100 µM (inactive); in assay [6], > 100 µM (inactive). The GI50 in assay [7] was 55.3 µM (inactive); in [8], 94.4 µM (inactive); in [9] it was > 100 µM (inactive); in [10], 30 µM (inactive); in [11], > 100 µM (inactive); in assay [12] it was > 100 µM (inactive). Besides, the GI50 was > 100 µM (inactive) in assay [16], > 100 µM (inactive) in [13], > 100 µM (inactive) in assay [14] and 77.1 µM (inactive) in assay [15].
On to `CC(C)(C)c1cc(C(=O)O)c2c(c1)C(=O)OC2(c1ccccc1)c1ccccc1C(=O)O` (stereo not drawn), for which the GI50 in assay [1] was over 100 µM; in assay [3] it was > 100 µM (inactive); in [4] it was > 100 µM (inactive); in [5], 0.206 µM (active); in assay [6], > 100 µM (inactive); in assay [7], > 100 µM (inactive). Further, the GI50 is > 100 µM (inactive) in [8]; > 100 µM (inactive) in assay [9]; > 100 µM (inactive) in assay [10]; 0.467 µM (active) in [11]; > 100 µM (inactive) in [12]; > 100 µM (inactive) in assay [16]. The GI50 in assay [13] is > 100 µM (inactive); in [17], > 100 µM (inactive); in assay [14], 77.3 µM (inactive); in assay [15], > 100 µM (inactive).
As for `O=C(c1ccccc1)C1CCCCN1C(=O)c1ccccc1` (stereo not drawn), the GI50 in assay [1] is over 100 µM; in assay [2] it was > 100 µM (inactive); in assay [4], > 100 µM (inactive); in assay [5] it was > 100 µM (inactive); in assay [6], > 100 µM (inactive); in [7], > 100 µM (inactive). For the same molecule, the GI50 in assay [9], in assay [10], in assay [11], in assay [13], in assay [17] and in assay [14] was > 100 µM (inactive) each time. The GI50 in assay [15] was > 100 µM (inactive).
In the case of `O=[N+]([O-])c1c(/C=N/Nc2ccccc2)oc(-c2ccc3c(c2)OCO3)c1-c1ccc2c(c1)OCO2`, the GI50 in assay [2] is 6.14 µM (inactive); in assay [3] it was 51.2 µM (inactive); in assay [4], 0.746 µM (active); in assay [5], 27 µM (inactive); in assay [6], 3.93 µM (inactive); in [7] it was 1.54 µM (inactive). In addition, the GI50 in assay [8] is 26.9 µM (inactive); in assay [9], 5.02 µM (inactive); in assay [11] it was 5.71 µM (inactive); in assay [12], 12.4 µM (inactive); in [16], 5.79 µM (inactive); in [13], 16.4 µM (inactive). In addition, the figures for the GI50 in [17], in assay [14] and in [15] were 30.3 µM (inactive), 4.28 µM (inactive) and 4.57 µM (inactive), respectively.
For the molecule `C=C(C)[C@H]1CC[C@@]2(C)C(C1)[C@H](C)CC[C@@H]2O` (stereo partly drawn), the GI50 in assay [1] was over 100 µM; in assay [2], > 100 µM (inactive); in [3], > 100 µM (inactive); in [4] it was > 100 µM (inactive); in [5], 47 µM (inactive); in [6] it was > 100 µM (inactive). Moreover, the GI50 in assay [7], in [8], in [9], in assay [10], in assay [11] and in assay [12] was > 100 µM (inactive) throughout. Besides, the GI50 in assay [16], in [13], in [17] and in assay [14] was > 100 µM (inactive) each time.
`COC(=O)C1Cc2c([nH]c3ccccc23)C(c2ccccc2O)N1` (stereo not drawn): the GI50 in assay [1] was 30.5 µM; in [2], 33.8 µM (inactive); in assay [3] it was 52 µM (inactive); in [4], 62.7 µM (inactive); in assay [5] it was 32.4 µM (inactive); in assay [7], > 100 µM (inactive). Further, the GI50 in assay [8] is 78.5 µM (inactive); in assay [9], 58.1 µM (inactive); in assay [10], 45.4 µM (inactive); in assay [11], 60.1 µM (inactive); in [12], > 100 µM (inactive); in assay [16], > 100 µM (inactive). Besides, the GI50 is > 100 µM (inactive) in [13], 84.1 µM (inactive) in assay [17], 58.1 µM (inactive) in assay [14] and 28.5 µM (inactive) in [15].

Source of the values: ChEMBL document CHEMBL1201862, “PubChem BioAssay data set” (2004).
